Results as given in ChEMBL document CHEMBL1201862, “PubChem BioAssay data set” (2004).
The source made the active and inactive calls.

Legend:
[1] = viability loss of HMLE_sh_eGFP cells – cell-based, luminescence, counter-screen for HMLE_sh_ECad selective toxicity project, dose response (AID 463074); format: functional, Homo sapiens;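 also: HMLE human mammary epithelial cells expressing control shRNA against eGFP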
[2] = Luminescence Cell-Based Dose Retest to Confirm Inhibitors of Cancer Stem Cells. [Related pubchem assays (depositor defined):AID2717, AID2721]; format: functional; details: Homo sapiens
Fibrinogen beta chain [3] = target: T1, Fibrinogen beta chain (Homo sapiens, UniProt P02675); experiment: Fluorescence polarization-based biochemical high throughput dose response assay to identify inhibitors that disrupt the binding of a cyclic peptide (Tn6) to the fibrin proteolytic product D-Dimer and fragment E complex [DD(E )].
Keap1/Nrf2 = Keap1/Nrf2 (Homo sapiens, UniProt Q14145); experiment: disruptors of Keap1 binding to Nrf2 peptide – biochemical, fluorescence polarization, cherry-picked samples, dose response (AID 588683)
HeLa = experiment: viability loss in HeLa cells – cell-based, 24 h, cherry-picked samples, cytotoxicity control, dose response (AID 504726); format: functional; details: Homo sapiens;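 also: potency for cytotoxicity as loss of luminescence signal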
HEK293 [4] = experiment: membrane integrity loss in HEK cells – cell-based, fluorescence, cytotoxicity control for IDE activator project, dose response (AID 588440); format: functional; details: Homo sapiens;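 also: cytotoxicity by LDH release measuring loss of membrane integrity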
Fibrinogen beta chain [5] = target: T1, Fibrinogen beta chain; experiment: Fluorescence polarization-based biochemical high throughput dose response assay to identify inhibitors that disrupt the binding of a cyclic peptide (Tn7) to the fibrin proteolytic product D-Dimer and fragment E complex [DD(E )].
Troponin, cardiac muscle = Troponin, cardiac muscle (Homo sapiens, UniProt P19429+P45379+P63316); experiment: Fluorescence-based biochemical high throughput dose response assay for activators of the calcium sensitivity of cardiac Regulated Thin Filaments (RTF). [Related pubchem assays (depositor defined):AID493008, AID493018, AID504382, AID504383]; format: protein-complex assay
Insulin-degrading enzyme [6] = target: T2, Insulin-degrading enzyme (Homo sapiens, UniProt P14735); experiment: recombinant IDE activation, cell-free – biochemical, fluorescence polarization, counter-screen for IDE activator project, dose response (AID 588681)
T2 sequence (P14735 whole entry): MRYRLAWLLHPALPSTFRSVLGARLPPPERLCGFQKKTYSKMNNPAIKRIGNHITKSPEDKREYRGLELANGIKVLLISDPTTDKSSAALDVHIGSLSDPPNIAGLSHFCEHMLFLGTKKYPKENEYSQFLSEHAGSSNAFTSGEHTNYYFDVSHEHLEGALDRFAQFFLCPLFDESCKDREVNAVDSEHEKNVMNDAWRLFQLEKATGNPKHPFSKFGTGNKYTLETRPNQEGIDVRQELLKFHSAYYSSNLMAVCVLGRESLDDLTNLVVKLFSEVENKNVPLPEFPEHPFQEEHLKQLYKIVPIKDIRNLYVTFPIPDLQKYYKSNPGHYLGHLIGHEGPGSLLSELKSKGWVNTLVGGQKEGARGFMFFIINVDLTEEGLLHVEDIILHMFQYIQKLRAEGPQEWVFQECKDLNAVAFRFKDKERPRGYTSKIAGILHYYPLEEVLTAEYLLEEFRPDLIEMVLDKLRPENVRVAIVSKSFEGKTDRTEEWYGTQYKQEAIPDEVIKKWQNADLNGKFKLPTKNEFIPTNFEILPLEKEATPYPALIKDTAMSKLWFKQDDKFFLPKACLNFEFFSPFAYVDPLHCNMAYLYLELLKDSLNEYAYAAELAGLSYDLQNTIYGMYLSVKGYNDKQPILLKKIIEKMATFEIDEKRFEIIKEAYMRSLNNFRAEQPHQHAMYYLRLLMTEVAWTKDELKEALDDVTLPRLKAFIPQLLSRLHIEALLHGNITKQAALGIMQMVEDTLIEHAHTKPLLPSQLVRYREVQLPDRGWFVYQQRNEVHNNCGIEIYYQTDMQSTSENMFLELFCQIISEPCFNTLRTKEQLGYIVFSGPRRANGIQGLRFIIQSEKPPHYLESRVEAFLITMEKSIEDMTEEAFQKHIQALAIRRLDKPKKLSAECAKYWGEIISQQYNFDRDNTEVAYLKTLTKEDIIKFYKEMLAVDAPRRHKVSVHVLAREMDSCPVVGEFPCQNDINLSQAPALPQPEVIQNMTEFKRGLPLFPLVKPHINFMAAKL

ORF 73 = ORF 73 (Human herpesvirus 8, UniProt O40947); experiment: KSHV LANA DNA-binding disruption – biochemical, fluorescence polarization, cherry-picked samples, dose response (AID 504725); design: species or system Human gammaherpesvirus 8;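 also: fluorescence polarization of a labeled DNA duplex reporting LANA DNA binding; potency is for inhibitors that block LANA binding to the DNA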
HEK293 [7] = experiment: optical interference in Abeta FP readout, dose response, artefact control for IDE activator project, biochemical, fluorescence polarization (AID 588442); format: functional, cell-based; details: Homo sapiens
Insulin-degrading enzyme [8] = target: T2, Insulin-degrading enzyme; experiment: cellular IDE activation of Abeta substrate cleavage – fluorescence polarization, HEK cells, dose response (AID 588439); format: functional, cell-based
[9] = restored growth of temperature-sensitive Burl-1 yeast – whole organism, S. cerevisiae, Burl-1 ts mutant, luminescence, counter-screen for SUMOylation pathway inhibitor project, dose response (AID 463199); format: functional
[10] = target: 72 kDa type IV collagenase (Homo sapiens, UniProt P08253); experiment: Dose Response validation of uHTS RPN11 inhibitor hits using a MMP-2 Fluorescence assay.; format: functional
[11] = target: T3, Dual specificity protein phosphatase 3 (Homo sapiens, UniProt P51452); experiment: VHR1 phosphatase inhibitors, biochemical (AID 1878)
[12] = target: T4, Tyrosine-protein phosphatase non-receptor type 7 (Homo sapiens, UniProt P35236); experiment: redox-active compounds inhibiting HePTP phosphatase – biochemical, fluorescence, mechanism study (AID 2068); format: functional
T4 sequence (P35236 whole entry): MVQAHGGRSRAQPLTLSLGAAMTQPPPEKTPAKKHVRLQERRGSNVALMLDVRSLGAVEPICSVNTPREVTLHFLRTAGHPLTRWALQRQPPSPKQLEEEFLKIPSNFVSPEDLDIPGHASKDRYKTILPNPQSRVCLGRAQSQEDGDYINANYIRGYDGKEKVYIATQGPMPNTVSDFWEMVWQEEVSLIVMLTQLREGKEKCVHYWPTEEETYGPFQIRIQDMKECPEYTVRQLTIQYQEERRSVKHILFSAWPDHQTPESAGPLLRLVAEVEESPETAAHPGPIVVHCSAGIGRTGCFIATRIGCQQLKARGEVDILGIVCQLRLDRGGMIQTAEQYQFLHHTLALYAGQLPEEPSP

[13] = target: T5, Dual specificity protein phosphatase 6 (Rattus norvegicus, UniProt Q64346); experiment: inhibition of rat DUSP6 enzyme activity – biochemical, in vitro, primary screen (AID 425)
T5 sequence (Q64346 whole entry): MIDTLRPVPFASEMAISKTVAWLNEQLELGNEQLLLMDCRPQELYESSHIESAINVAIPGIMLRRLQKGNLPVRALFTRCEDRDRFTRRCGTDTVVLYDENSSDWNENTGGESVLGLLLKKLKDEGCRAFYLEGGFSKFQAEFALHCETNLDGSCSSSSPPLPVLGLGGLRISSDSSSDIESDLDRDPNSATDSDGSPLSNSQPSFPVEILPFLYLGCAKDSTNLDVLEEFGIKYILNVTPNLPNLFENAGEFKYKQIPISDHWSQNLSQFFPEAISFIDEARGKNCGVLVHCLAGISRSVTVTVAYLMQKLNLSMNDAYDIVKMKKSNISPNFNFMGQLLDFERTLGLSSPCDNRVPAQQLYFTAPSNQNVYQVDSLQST

Prothrombin = Prothrombin (Bos taurus, UniProt P00735); experiment: thrombin protease inhibitors – biochemical, fluorescence polarization, uHTS hits, dose response (AID 602369); format: functional
[14] = target: T3, Dual specificity protein phosphatase 3; experiment: VHR1 phosphatase inhibitors, primary screen, biochemical, absorbance, uHTS (AID 1654)
[15] = target: T3, Dual specificity protein phosphatase 3; experiment: SAR VHR1 Fluorescent Assay for In Vitro dose response studies. [Related pubchem assays (depositor defined):AID1654, AID1661, AID1878, AID1992, AID2004, AID2070, AID2085]; format: functional
[16] = target: T3, Dual specificity protein phosphatase 3; experiment: SAR VHR1 Fluorescent Assay for In Vitro dose response studies Set 2. [Related pubchem assays (depositor defined):AID1654, AID1661, AID1878]; format: functional
[17] = target: T4, Tyrosine-protein phosphatase non-receptor type 7; experiment: SAR analysis of chemical inhibitors of HePTP using a Fluorescent assay - Set 2. [Related pubchem assays (depositor defined):AID1059, AID1077, AID1661, AID2085, AID521]; format: functional
[18] = target: 26S proteasome non-ATPase regulatory subunit 14 (Homo sapiens, UniProt O00487); experiment: inhibition of proteasome subunit RPN11 – biochemical, fluorescence polarization, uHTS hits, confirmation (AID 602368); format: functional
[19] = target: T5, Dual specificity protein phosphatase 6; format: functional
[20] = target: T5, Dual specificity protein phosphatase 6; experiment: SAR analysis of inhibitors of MKP-3 - Set 2. [Related pubchem assays (depositor defined):AID1055, AID1661, AID425, AID553, AID566]; format: functional
[21] = target: T3, Dual specificity protein phosphatase 3; experiment: SAR VHR1 absorbance Assay for In Vitro dose response studies. [Related pubchem assays (depositor defined):AID1654, AID1661, AID1878, AID1992, AID2004]

T3 sequence (P51452 whole entry): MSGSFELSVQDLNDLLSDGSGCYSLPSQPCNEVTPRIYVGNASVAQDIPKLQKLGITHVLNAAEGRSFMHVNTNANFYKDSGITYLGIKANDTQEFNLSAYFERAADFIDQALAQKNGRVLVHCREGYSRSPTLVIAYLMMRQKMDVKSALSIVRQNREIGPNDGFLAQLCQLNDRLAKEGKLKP
T1 sequence (P02675 whole entry, the tested form may be a part): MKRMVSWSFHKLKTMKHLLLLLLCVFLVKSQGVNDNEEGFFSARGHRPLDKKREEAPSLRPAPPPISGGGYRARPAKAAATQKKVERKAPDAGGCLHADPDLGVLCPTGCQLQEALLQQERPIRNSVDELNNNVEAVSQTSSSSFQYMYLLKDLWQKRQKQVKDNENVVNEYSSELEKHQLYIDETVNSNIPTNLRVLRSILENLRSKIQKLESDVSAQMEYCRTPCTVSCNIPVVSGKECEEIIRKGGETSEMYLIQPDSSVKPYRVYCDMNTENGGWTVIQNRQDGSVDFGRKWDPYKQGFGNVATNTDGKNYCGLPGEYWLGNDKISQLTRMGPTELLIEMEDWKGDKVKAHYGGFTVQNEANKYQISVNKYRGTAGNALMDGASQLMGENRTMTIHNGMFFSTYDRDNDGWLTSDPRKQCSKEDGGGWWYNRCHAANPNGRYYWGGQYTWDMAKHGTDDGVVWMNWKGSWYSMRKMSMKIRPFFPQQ
Sequence of 72 kDa type IV collagenase (P08253 whole entry): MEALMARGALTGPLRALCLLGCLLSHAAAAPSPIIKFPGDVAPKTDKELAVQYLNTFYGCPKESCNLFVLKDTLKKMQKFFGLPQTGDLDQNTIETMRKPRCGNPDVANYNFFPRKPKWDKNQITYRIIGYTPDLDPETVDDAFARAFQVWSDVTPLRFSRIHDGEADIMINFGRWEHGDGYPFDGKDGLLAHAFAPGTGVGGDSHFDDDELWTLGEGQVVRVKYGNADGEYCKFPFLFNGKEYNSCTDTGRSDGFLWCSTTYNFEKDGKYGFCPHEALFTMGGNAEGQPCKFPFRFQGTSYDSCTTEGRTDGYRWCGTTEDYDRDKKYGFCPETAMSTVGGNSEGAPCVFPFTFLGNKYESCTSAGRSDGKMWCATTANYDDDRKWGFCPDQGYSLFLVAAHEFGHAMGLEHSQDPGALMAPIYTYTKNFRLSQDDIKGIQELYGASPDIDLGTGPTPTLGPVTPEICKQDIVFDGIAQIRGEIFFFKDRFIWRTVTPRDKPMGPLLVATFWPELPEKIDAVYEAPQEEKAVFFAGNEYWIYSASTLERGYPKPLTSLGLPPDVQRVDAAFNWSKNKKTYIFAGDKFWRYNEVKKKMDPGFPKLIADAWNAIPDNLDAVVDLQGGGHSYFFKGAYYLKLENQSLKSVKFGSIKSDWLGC
Sequence of Keap1/Nrf2 (Q16236 whole entry): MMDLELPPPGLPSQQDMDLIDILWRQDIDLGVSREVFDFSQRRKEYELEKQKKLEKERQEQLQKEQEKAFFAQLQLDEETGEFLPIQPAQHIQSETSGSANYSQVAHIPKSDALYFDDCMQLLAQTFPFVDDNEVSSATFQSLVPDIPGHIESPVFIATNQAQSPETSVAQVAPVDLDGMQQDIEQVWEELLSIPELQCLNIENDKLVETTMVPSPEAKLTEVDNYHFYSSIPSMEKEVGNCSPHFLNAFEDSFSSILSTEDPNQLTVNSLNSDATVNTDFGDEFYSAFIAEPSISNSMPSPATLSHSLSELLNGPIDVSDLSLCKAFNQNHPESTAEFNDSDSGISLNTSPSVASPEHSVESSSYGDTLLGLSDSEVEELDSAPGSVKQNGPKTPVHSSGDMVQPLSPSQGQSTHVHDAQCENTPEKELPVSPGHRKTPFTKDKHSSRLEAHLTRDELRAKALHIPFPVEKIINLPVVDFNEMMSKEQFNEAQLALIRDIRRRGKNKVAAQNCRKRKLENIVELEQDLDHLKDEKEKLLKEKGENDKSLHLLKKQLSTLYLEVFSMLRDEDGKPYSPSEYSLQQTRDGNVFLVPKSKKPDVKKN
Sequence of Keap1/Nrf2 (Q14145 whole entry): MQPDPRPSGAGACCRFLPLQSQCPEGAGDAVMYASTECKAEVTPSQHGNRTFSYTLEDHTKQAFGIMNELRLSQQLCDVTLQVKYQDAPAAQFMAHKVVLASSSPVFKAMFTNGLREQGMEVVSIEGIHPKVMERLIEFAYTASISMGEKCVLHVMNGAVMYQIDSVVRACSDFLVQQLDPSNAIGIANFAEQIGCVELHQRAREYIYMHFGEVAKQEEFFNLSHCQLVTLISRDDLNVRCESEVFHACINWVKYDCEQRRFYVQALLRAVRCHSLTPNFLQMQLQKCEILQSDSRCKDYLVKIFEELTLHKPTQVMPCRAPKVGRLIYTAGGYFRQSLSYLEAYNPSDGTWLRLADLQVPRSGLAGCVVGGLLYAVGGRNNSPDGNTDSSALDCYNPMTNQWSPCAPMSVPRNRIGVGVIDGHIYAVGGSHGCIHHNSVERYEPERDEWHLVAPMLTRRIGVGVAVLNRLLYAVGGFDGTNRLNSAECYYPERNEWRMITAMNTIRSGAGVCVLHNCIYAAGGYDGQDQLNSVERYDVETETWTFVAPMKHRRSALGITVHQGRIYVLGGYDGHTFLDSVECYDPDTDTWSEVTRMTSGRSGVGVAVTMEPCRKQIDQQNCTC
Sequence of ORF 73 (O40947 whole entry): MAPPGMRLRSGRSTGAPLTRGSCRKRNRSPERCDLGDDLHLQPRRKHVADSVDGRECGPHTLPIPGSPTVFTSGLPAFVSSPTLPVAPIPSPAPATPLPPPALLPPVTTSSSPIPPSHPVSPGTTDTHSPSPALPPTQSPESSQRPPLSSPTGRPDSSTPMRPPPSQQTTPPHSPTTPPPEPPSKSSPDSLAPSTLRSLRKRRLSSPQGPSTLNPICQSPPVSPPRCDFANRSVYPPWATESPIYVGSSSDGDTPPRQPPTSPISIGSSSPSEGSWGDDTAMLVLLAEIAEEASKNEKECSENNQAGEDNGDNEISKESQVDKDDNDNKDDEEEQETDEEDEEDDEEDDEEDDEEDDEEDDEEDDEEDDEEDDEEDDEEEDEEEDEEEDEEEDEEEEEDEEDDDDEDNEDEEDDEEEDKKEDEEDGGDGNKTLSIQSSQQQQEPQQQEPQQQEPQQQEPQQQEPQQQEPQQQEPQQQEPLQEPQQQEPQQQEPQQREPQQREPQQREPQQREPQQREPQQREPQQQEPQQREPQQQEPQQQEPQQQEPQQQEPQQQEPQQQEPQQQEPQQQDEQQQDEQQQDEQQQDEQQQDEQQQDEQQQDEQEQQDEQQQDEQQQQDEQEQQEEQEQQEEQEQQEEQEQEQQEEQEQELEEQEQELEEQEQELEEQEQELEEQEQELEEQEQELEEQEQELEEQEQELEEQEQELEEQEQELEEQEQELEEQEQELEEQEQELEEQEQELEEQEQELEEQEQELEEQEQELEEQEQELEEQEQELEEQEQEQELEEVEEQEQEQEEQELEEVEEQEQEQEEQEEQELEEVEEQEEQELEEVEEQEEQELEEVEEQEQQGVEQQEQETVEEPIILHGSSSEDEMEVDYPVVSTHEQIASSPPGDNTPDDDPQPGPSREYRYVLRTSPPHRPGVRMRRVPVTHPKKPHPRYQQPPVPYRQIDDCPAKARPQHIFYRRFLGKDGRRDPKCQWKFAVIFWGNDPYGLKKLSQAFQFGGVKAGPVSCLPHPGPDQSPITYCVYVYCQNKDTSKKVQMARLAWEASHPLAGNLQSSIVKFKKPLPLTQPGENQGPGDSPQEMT
Sequence of 26S proteasome non-ATPase regulatory subunit 14 (O00487 whole entry): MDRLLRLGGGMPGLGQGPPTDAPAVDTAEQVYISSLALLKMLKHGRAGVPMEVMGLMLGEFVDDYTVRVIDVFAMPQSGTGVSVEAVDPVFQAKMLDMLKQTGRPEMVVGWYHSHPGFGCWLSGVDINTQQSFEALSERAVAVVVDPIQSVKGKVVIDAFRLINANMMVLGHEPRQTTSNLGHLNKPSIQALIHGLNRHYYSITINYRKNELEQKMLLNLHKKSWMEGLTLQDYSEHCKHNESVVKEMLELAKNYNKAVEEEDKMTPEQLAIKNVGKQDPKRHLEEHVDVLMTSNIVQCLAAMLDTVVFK

For `O=C(Nc1ccccc1N1CCCC1)c1cccc(-c2cc3ccccc3oc2=O)c1`, the AC50 [1] was 41.2 µM (active) and the AC50 [2] was 1.88 µM (active).

For `COc1ccc2ccccc2c1C(O)c1nccn1C` (stereo unspecified), the IC50 (Fibrinogen beta chain [3]) was 13.1 µM (inactive), the AC50 (Keap1/Nrf2) was 1.45 µM (active) and the AC50 (HeLa) was 297 µM (active). For the same compound, the IC50 (HEK293 [4]) was > 89.2 µM (inactive), the IC50 (Fibrinogen beta chain [5]) was > 83.3 µM (inactive) and the EC50 (Troponin, cardiac muscle) was 7.99 µM (active). For the same compound, the EC50 (Insulin-degrading enzyme [6]) was > 54.7 µM (inactive), the AC50 (ORF 73) was 3.41 µM (active) and the EC50 (HEK293 [7]) was > 54.7 µM (inactive). For the same compound, the EC50 (Insulin-degrading enzyme [8]) was > 54.7 µM (inactive).

For `CC1CCN(CCCCOc2cccc(C(C)C)c2)CC1`, the AC50 [9] was 68.4 µM (active).

For `O=C(O)c1ccc(NC(=S)NC(=O)c2ccc(-c3ccc(Br)cc3)o2)cc1`, the IC50 [10] was 3.68 µM (active), the IC50 [11] was 1.88 µM (active) and the IC50 [12] was 0.227 µM (active). The IC50 [13] was 76.7 µM (active), the IC50 (Prothrombin) was 60.7 µM (active) and the IC50 [14] was 6.72 µM (active). For the same compound, the IC50 [15] was 3.63 µM (active), the IC50 [16] was 0.226 µM (active) and the IC50 [17] was 0.314 µM (active). The IC50 [18] was 15.2 µM (active), the IC50 [19] was 55.8 µM (active) and the IC50 [20] was > 100 µM (inactive). For the same compound, the IC50 [21] was 3.35 µM (active).
